# Reference: the supplement of paper PMC10307832
# Legend:
# Assay in all cases: relative viability (nuclei count vs DMSO), 5 days (fraction); higher = more cells survive
# [1] = compound: COc1cc2nc(N3CCCN(C)CC3)nc(NC3CCN(Cc4ccccc4)CC3)c2cc1OC + O=C(CCCCCCC(=O)Nc1ccccc1)NO [Vorinostat] (partner 1 µM)
# Method in brief: (§1)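 Lung cancer cell lines, seeded in 1536-well plates, were treated the following day by pin tool with a single drug or with five library-drug doses (not always all listed) in √10 steps on top of a fixed anchor-drug dose. Cells were fixed and nuclei stained in one step after 5 days, and nuclei were counted. Relative viability is the nuclei count for treated wells divided by that for vehicle wells, reported as medians of duplicate plates.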
# [2] = compound: COc1cc2nc(N3CCCN(C)CC3)nc(NC3CCN(Cc4ccccc4)CC3)c2cc1OC + COc1cccc2cc(-c3nc([C@H]4CC[C@H](C(=O)O)CC4)n4ncnc(N)c34)[nH]c12 [OSI-027] (partner 0.5 µM)
# Method in brief: as §1
# AZD6482 + Linsitinib = compound: Cc1cc([C@@H](C)Nc2ccccc2C(=O)O)c2nc(N3CCOCC3)cc(=O)n2c1 [AZD6482] + C[C@]1(O)C[C@@H](c2nc(-c3ccc4ccc(-c5ccccc5)nc4c3)c3c(N)nccn32)C1 [Linsitinib] (partner 1 µM)
# Method in brief: as §1
# AZD6482 + Navitoclax = compound: Cc1cc([C@@H](C)Nc2ccccc2C(=O)O)c2nc(N3CCOCC3)cc(=O)n2c1 [AZD6482] + CC1(C)CCC(c2ccc(Cl)cc2)=C(CN2CCN(c3ccc(C(=O)NS(=O)(=O)c4ccc(N[C@H](CCN5CCOCC5)CSc5ccccc5)c(S(=O)(=O)C(F)(F)F)c4)cc3)CC2)C1 [Navitoclax] (partner 0.5 µM)
# Method in brief: as §1
Cell Line,relative viability ([1]; first compound 0.2 µM),relative viability ([1]; first compound 0.6325 µM),relative viability ([1]; first compound 2 µM),relative viability ([1]; first compound 6.325 µM),relative viability ([2]; first compound 0.2 µM),relative viability ([2]; first compound 0.6325 µM),relative viability ([2]; first compound 2 µM),relative viability ([2]; first compound 6.325 µM),relative viability (AZD6482 + Linsitinib; first compound 0.08 µM),relative viability (AZD6482 + Linsitinib; first compound 0.253 µM),relative viability (AZD6482 + Linsitinib; first compound 0.8 µM),relative viability (AZD6482 + Linsitinib; first compound 2.53 µM),relative viability (AZD6482 + Linsitinib; first compound 8 µM),relative viability (AZD6482 + Navitoclax; first compound 0.08 µM),relative viability (AZD6482 + Navitoclax; first compound 0.253 µM),relative viability (AZD6482 + Navitoclax; first compound 0.8 µM),relative viability (AZD6482 + Navitoclax; first compound 2.53 µM),relative viability (AZD6482 + Navitoclax; first compound 8 µM)
201T,0.968,0.983,0.952,0.939,0.706,0.811,0.73,0.601,1.03,0.969,1.01,0.808,0.867,1.22,1.17,1.19,1.12,1.17
A549,,,,,,,,,0.478,0.347,0.466,,0.432,1.07,1.25,1.06,0.607,0.961
A-427,0.865,0.827,0.882,0.851,0.487,0.55,0.442,0.386,1.02,1.1,1.17,0.951,1.1,0.861,0.903,0.916,0.757,0.947
ABC-1,0.959,1.23,1.13,0.917,0.479,0.583,0.444,0.336,0.611,0.801,0.81,0.521,0.815,,,,,
BEN,0.608,0.54,0.636,0.552,0.317,0.28,0.288,0.244,0.884,0.93,0.988,0.717,0.85,0.058,0.0744,0.0638,0.0645,0.178
CAL-12T,0.558,0.626,0.925,0.767,0.516,0.718,0.76,0.479,0.711,0.604,0.632,0.273,0.445,1.13,1.29,1.29,0.648,1.23
COR-L23,0.536,0.406,0.561,0.286,0.882,0.735,0.802,0.765,0.595,0.933,1.03,0.565,0.686,0.711,1.02,1.23,0.756,0.857
COR-L 105,0.805,1.04,0.728,0.595,0.534,0.882,0.487,0.554,0.635,0.779,0.783,0.553,0.603,0.78,0.648,0.747,0.521,0.633
Calu-6,,,,,,,,,0.726,0.889,0.89,0.701,0.899,0.662,0.699,0.754,0.57,0.602
ChaGo-K-1,0.784,0.749,0.779,0.717,0.572,0.604,0.564,0.501,,,,,,1.09,,1.18,0.986,1.1
EBC-1,,,,,,,,,0.559,0.76,0.788,0.348,0.408,0.273,0.318,0.322,0.191,0.241
EKVX,0.703,0.721,0.541,0.722,0.755,0.662,0.736,0.666,0.716,0.6,0.646,0.362,0.544,0.817,0.868,0.786,0.535,0.57
EMC-BAC-2,0.431,0.427,0.448,0.508,0.361,0.353,0.39,0.397,0.744,0.681,0.781,0.529,0.587,1.09,1.08,1.12,0.916,0.971
EPLC-272H,0.423,0.4,0.38,0.335,0.358,0.32,0.316,0.205,0.999,,0.898,0.667,0.537,0.943,,0.994,0.896,0.775
H3255,0.77,0.796,0.858,0.772,0.513,0.534,0.587,0.692,0.919,0.907,0.945,0.602,0.729,0.501,0.523,0.352,0.314,0.243
HARA,0.584,0.63,0.515,0.51,0.535,0.483,0.454,0.398,0.691,0.974,1.11,,0.775,1.11,1.16,1.13,,1.16
HCC-15,0.85,0.884,0.909,0.81,0.696,0.712,0.619,0.377,0.803,0.894,0.858,0.812,0.922,0.666,0.616,0.626,0.515,0.523
HCC-44,1.11,1.12,1.17,1.12,0.604,0.571,0.576,0.586,0.413,0.527,0.429,0.539,0.362,0.758,0.964,0.965,0.874,0.459
HCC-78,0.495,0.442,0.462,0.429,0.381,0.33,0.329,0.377,0.285,0.209,0.223,0.214,0.236,0.663,0.438,0.433,0.203,0.306
HCC-366,0.332,0.33,0.254,0.284,0.92,0.944,0.398,0.747,0.383,0.438,0.477,0.151,0.141,0.937,1.01,1.11,0.901,0.908
